Test results published in patent publication US12357591B2 (Nova Southeastern University, priority 2018, dated 2025).

Key:
[1] = in vitro
Procedure: The volunteer was asked not to eat or drink any acidic, alkaline, or spicy food or beverages and to rinse their mouth before the collection of saliva. The saliva was collected into an ice-bathed beaker and then degased to remove air bubbles and then filtered through 0.45 μm membrane.
Aliquot samples were withdrawn at specific time intervals including 2, 4, 6, 10, 15, and 30 min.

[2] = in vitro; settings: for Papp at 90 min, 10 mg/mL: pig
Procedure: Frozen pig's heads were obtained from local abattoir. Then, they were defrosted at room temperature. The porcine mucosa were excised by dissecting the sublingual mucosa and removing the underlying connective tissue using a scalpel and fine tweezers using established surgical techniques. The excised mucosa were frozen on aluminum foil at −20° C. until used (<4 weeks).
The sublingual mucosa (floor of the mouth) excised from pigs were used as the diffusion membranes. Mcvilian buffer at various pH was used in the donor cell as a diffusion medium.
Before each experiment, the mucosal membranes were defrosted at room temperature and mounted between the donor and receptor chambers and clamped using a metal clamp. The receptor chamber that has a magnetic stirrer was filled with the diffusion medium before mounting the membranes and air bubbles were removed after mounting the membranes and before the experiment. The water bath was set at 37° C. for the circulating water in the jacketed Franz Cells. The mounted membranes were equilibrated with the diffusion medium for 30 min from both sides before the experiment and were checked for any leaks.
Aliquots were withdrawn from the receptor chamber using 6 inch-long needles (Popper & Sons. Inc, New Hyde Park, NYC) and 1 mL syringes at 5, 10, 15, 20, 30, 45, 60, 75, and 90 min. The withdrawn volumes were replaced with fresh medium.
Samples were transferred to HPLC vials for HPLC analysis according to USP Method.

[3] = Epinephrine permeability with alkalizing agent and penetration enhancer, Franz cells; assay type: in vitro ADME, porcine
Procedure: EpiBit solution with penetration enhancer and alkalizing agent was added to the donor chamber.

[4] = between pH 4 to 5, first 2 min
Procedure: Aliquot samples were withdrawn at specific time intervals including 2 (maximum expected time for sublingual administration), 4, 6, 10, 15, and 30 min.

[5] = cited from earlier work
[6] = pH of 2 mL water as diffusion medium with pH-modifying excipients; assay type: physicochemical
[7] = 1.125% (w/v) in 2 mL water, With Epi (20 mg)
[8] = 1.125% (w/v) in 2 mL water, Without Epi
[9] = 1.875% (w/v) in 2 mL water, With Epi (20 mg)
[10] = 1.875% (w/v) in 2 mL water, Without Epi

Which recovery at 0 min, 5 mg/mL ([1]; male, human, human saliva) does the source give for `CNC[C@H](O)c1ccc(O)c(O)c1` [Epi, Epinephrine] here?
The recovery at 0 min, 5 mg/mL was 100 ± 0.2%.

And the recovery at 2 min, 5 mg/mL ([1]; male, human, human saliva)?
Its recovery at 2 min, 5 mg/mL is 96 ± 0.2%.

What about the recovery at 4 min, 5 mg/mL ([1]; male, human, human saliva) of the same compound?
Its recovery at 4 min, 5 mg/mL is 96 ± 0.2%.

And the recovery at 6 min, 5 mg/mL ([1]; male, human, human saliva)?
Its recovery at 6 min, 5 mg/mL is 95 ± 0.1%.

What about the recovery at 10 min, 5 mg/mL ([1]; male, human, human saliva) of the same compound?
Its recovery at 10 min, 5 mg/mL is 95 ± 0.2%.

What about the recovery at 15 min, 5 mg/mL ([1]; male, human, human saliva) of the same compound?
Its recovery at 15 min, 5 mg/mL is 92 ± 0.2%.

What about the recovery at 30 min, 5 mg/mL ([1]; male, human, human saliva) of the same compound?
Its recovery at 30 min, 5 mg/mL is 84%.

And the “stability of Epi in human saliva” value ([1]; saliva pH and up to pH 8)?
Its value is “stable in human saliva (saliva pH and up to pH 8) for sufficient time to allow for sublingual drug administration”.

And the AUC0-90 min ([2]; pH 5)?
Its AUC0-90 min is 5169 ± 255 μg/cm^2/ min.

And the “J (influx)” value ([2]; pH 5)?
The value was 0.4 ± 0.1 μg/cm^2/min.

What about the AUC0-90 min ([2]; pH 6) of the same compound?
The AUC0-90 min was 6191 ± 756 μg/cm^2/ min.

What about the “J (influx)” value ([2]; pH 6) of the same compound?
The value was 0.8 ± 0.2 μg/cm^2/min.

And the AUC0-90 min ([2]; pH 6.8)?
The AUC0-90 min was 46562 ± 3450 μg/cm^2/ min.

And the “J (influx)” value ([2]; pH 6.8)?
Its value is 2.8 ± 0.2 μg/cm^2/min.

And the AUC0-90 min ([2]; pH 7.4)?
Its AUC0-90 min is 60099 ± 6576 μg/cm^2/ min.

And the “J (influx)” value ([2]; pH 7.4)?
The value was 5.3 ± 0.2 μg/cm^2/min.

What about the AUC0-90 min ([2]; pH 8) of the same compound?
The AUC0-90 min was 135689 ± 439 μg/cm^2/ min.

What about the “J (influx)” value ([2]; pH 8) of the same compound?
Its value is 30.9 ± 0.4 μg/cm^2/min.

And the “increase of Epi sublingual permeability” value ([2]; pH 8 compared to pH 6.8)?
Its value is “about 11 fold”.

And the Papp at 90 min, 10 mg/mL ([2]; pH 5)?
Its Papp at 90 min, 10 mg/mL is 333 ×10⁻⁶ cm/s.

What about the Papp at 90 min, 10 mg/mL ([2]; pH 6) of the same compound?
Its Papp at 90 min, 10 mg/mL is 667 ×10⁻⁶ cm/s.

What about the Papp at 90 min, 10 mg/mL ([2]; pH 6.8) of the same compound?
Its Papp at 90 min, 10 mg/mL is 2330 ×10⁻⁶ cm/s.

What about the Papp at 90 min, 10 mg/mL ([2]; pH 7.4) of the same compound?
Its Papp at 90 min, 10 mg/mL is 4330 ×10⁻⁶ cm/s.

And the “enhancement of Epi sublingual permeability” value ([3]; alkalizing agent (pH of diffusion medium around 8) with permeation enhancer like SDS)?
The value was “about 25 fold”.

And the “enhancement of Epi sublingual permeability” value ([3]; alkalizing agent or permeation enhancer, each one alone)?
The value was 10- to 11 fold.

And the Epi loss [4]?
Its Epi loss is 10-17%.

And the “optimal pH values for the stability of Epi in aqueous solution” value [5]?
Its value is 3.0-3.8.

Which “pH Reading” value [6, 7] does the source give for `O=C([O-])O.[Na+]` [Na Bicarbonate, sodium bicarbonate] here?
Its value is 7.9 ± 0.1.

What about the “pH Reading” value [6, 8] of the same compound?
Its value is 8.9 ± 0.1.

What about the “pH Reading” value [6, 9] of the same compound?
Its value is 7.7 ± 0.0.

What about the “pH Reading” value [6, 10] of the same compound?
Its value is 8.5 ± 0.1.

What about the “pH Reading” value ([6]; 2.25% (w/v) in 2 mL water, With Epi (20 mg)) of the same compound?
Its value is 7.9 ± 0.1.

And the “pH Reading” value ([6]; 2.25% (w/v) in 2 mL water, Without Epi)?
Its value is 8.6 ± 0.1.

Which results are given for Na Citrate?
pH Reading [6, 7]: 5.0 ± 0.1; pH Reading [6, 8]: 9.4 ± 0.1; pH Reading [6, 9]: 7.1 ± 0.1; pH Reading [6, 10]: 9.8 ± 0.1
